Measurements published in patent US11072625B2 (GLYCOMIMETICS, INC., priority 2016, dated 2021).

Molecular target: T1, recombinant human E-selectin/CD63E Fc Chimera (Homo sapiens, UniProt P16581)
T1 construct: purchased R & D systems
Assay: E-selectin activity, analysis by SPR (Biacore X100)
Assay type: binding
Conditions: Biacore X100, CM5 chip, E-selectin Fc chimera captured on anti-human IgG (Fc) antibody
Description: Surface Plasmon Resonance (SPR) measurements were performed on a Biacore X100 instrument (GE Healthcare). A CM5 sensor chip (GE Healthcare) was used for the interaction between E-selectin and GMI compound. Anti-human IgG (Fc) antibody (GE Healthcare) was immobilized onto the chip by amine coupling according to the manufacturer's instructions. In brief, after a 7-min injection (flow rate of 5 μl/min) of 1:1 mixture of N-ethyl-N′-(3-dimethylaminopropyl) carbodiimide hydrochloride and N-hydroxysuccinimide, anti-human IgG (Fc) antibody (25 μg/ml in 10 mM sodium acetate buffer, pH 5.0) was injected using a 6-min injection at 5 μl min. Remaining activated groups were blocked by injecting 1 M ethanolamine/HCl, pH 8.5. The recombinant human E-selectin/CD63E Fc Chimera (50 μg/ml) (R & D systems) was injected into the experimental cell until 6000-7000 RU was captured onto the antibody surface. No recombinant human E-selectin/CD63E was injected into the control cell. Increasing concentrations of GMI compound samples were injected at 30 μl/min into both flow cells and all sensorgrams were recorded against the control. Regeneration of the anti-human IgG (Fc) surface was achieved by injecting 3M magnesium chloride, followed by 50 mM sodium hydroxide. Data were analyzed using Biacore X100 evaluation/BIA evaluation 4.1.1 software (GE Healthcare) and Graphad prism 6 software.

T1 sequence (P16581 with tags, fused parts or gaps limits assumed): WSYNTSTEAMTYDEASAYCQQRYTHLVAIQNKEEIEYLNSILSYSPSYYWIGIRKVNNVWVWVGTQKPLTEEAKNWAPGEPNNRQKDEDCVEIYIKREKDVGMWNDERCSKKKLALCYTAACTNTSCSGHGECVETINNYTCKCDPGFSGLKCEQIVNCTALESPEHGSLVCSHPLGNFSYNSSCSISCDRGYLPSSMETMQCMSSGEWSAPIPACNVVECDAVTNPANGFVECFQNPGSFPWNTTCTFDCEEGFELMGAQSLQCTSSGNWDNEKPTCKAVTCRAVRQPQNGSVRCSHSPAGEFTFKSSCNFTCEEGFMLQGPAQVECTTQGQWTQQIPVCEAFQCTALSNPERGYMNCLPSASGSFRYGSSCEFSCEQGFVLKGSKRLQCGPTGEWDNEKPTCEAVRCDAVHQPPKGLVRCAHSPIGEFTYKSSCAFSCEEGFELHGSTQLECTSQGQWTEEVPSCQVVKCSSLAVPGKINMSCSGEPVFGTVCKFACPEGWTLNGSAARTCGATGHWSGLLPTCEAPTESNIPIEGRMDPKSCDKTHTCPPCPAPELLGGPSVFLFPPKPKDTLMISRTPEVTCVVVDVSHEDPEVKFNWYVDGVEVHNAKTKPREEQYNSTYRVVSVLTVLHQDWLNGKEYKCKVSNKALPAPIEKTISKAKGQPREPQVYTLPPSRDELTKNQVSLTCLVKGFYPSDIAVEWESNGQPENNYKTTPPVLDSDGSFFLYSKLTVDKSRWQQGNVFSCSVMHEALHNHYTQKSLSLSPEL

Row | SMILES | Kd
1 | CCC1CC(C(=O)NCCNC(=O)CCOCCOCCOCCOCCC(=O)NCCNC(=O)C2CC(CC)C(OC3OC(C)C(O)C(O)C3O)C(OC3OC(CO)C(O)C(OC(CC4CCCCC4)C(=O)O)C3NC(C)=O)C2)CC(OC2OC(CO)C(O)C(OC(CC3CCCCC3)C(=O)O)C2NC(C)=O)C1OC1OC(C)C(O)C(O)C1O (centres unmarked) [Compound 17] | 5.1 nM
2 | CCC1CC(C(=O)NCCNC(=O)CCOCCOCCOCCOCCOCCOCCOCCOCCOCCOCCC(=O)NCCNC(=O)C2CC(CC)C(OC3OC(C)C(O)C(O)C3O)C(OC3OC(CO)C(O)C(OC(CC4CCCCC4)C(=O)O)C3NC(C)=O)C2)CC(OC2OC(CO)C(O)C(OC(CC3CCCCC3)C(=O)O)C2NC(C)=O)C1OC1OC(C)C(O)C(O)C1O (centres unmarked) [Compound 15] | 6 nM
3 | CCC1CC(C(=O)NCCNC(=O)CCOCCOCCOCCOCCOCCOCCOCCOCCOCCOCCOCCOCCOCCOCCOCCOCCOCCOCCOCCOCCOCCC(=O)NCCNC(=O)C2CC(CC)C(OC3OC(C)C(O)C(O)C3O)C(OC3OC(CO)C(O)C(OC(CC4CCCCC4)C(=O)O)C3NC(C)=O)C2)CC(OC2OC(CO)C(O)C(OC(CC3CCCCC3)C(=O)O)C2NC(C)=O)C1OC1OC(C)C(O)C(O)C1O (centres unmarked) [Compound 13] | 4.7 nM
4 | CCC1CC(C(=O)NCCNC(=O)CCOCCOCCC(=O)NCCNC(=O)C2CC(CC)C(OC3OC(C)C(O)C(O)C3O)C(OC3OC(CO)C(O)C(OC(CC4CCCCC4)C(=O)O)C3NC(C)=O)C2)CC(OC2OC(CO)C(O)C(OC(CC3CCCCC3)C(=O)O)C2NC(C)=O)C1OC1OC(C)C(O)C(O)C1O (centres unmarked) [Compound 18] | 3.5 nM
5 | CCC1CC(C(=O)OC)C[C@@H](O[C@@H]2O[C@@H](CO)[C@H](O)C(O[C@@H](CC3CCCCC3)C(=O)N3CCC3)C2NC(C)=O)[C@@H]1O[C@@H]1OC(C)[C@@H](O)[C@H](O)C1O (some centres unmarked) [Compound 4] | 2600 nM
6 | CC[C@H]1C[C@@H](C(=O)NCCNC(=O)CCC(=O)NCCNC(=O)C2C[C@H](CC)[C@@H](O[C@@H]3O[C@@H](C)[C@@H](O)[C@@H](O)[C@@H]3O)[C@H](O[C@@H]3O[C@H](CO)[C@H](O)[C@H](O[C@@H](CC4CCCCC4)C(=O)O)[C@H]3NC(C)=O)C2)C[C@@H](OC2O[C@H](CO)[C@H](O)[C@H](O[C@@H](CC3CCCCC3)C(=O)O)[C@H]2NC(C)=O)[C@@H]1O[C@@H]1O[C@@H](C)[C@@H](O)[C@@H](O)[C@@H]1O (some centres unmarked) [Compound 19] | 10.2 nM
7 | CCC1CC(C(=O)NCCNC(=O)CCOCCOCCOCCOCCOCCOCCOCCOCCOCCOCCOCCOCCOCCC(=O)NCCNC(=O)C2CC(CC)C(OC3OC(C)C(O)C(O)C3O)C(OC3OC(CO)C(O)C(OC(CC4CCCCC4)C(=O)O)C3NC(C)=O)C2)CC(OC2OC(CO)C(O)C(OC(CC3CCCCC3)C(=O)O)C2NC(C)=O)C1OC1OC(C)C(O)C(O)C1O (centres unmarked) [Compound 14] | 6.6 nM
8 | CCC1CC(C(=O)NCCNC(=O)CCOCCOCCOCCOCCOCCOCCC(=O)NCCNC(=O)C2CC(CC)C(OC3OC(C)C(O)C(O)C3O)C(OC3OC(CO)C(O)C(OC(CC4CCCCC4)C(=O)O)C3NC(C)=O)C2)CC(OC2OC(CO)C(O)C(OC(CC3CCCCC3)C(=O)O)C2NC(C)=O)C1OC1OC(C)C(O)C(O)C1O (centres unmarked) [Compound 16] | 6 nM

More lines, now with the values ahead:

Row | Kd | SMILES
9 | 2.8 nM | CCC1CC(C(=O)NCCNC(=O)CCOCCOCCOCCOCCC(=O)NCCNC(=O)C2CC(CC)C(OC3OC(C)C(O)C(O)C3O)C(OC3OC(CO)C(O)C(OC(CC4CCCCC4)C(=O)N4CCC4)C3NC(C)=O)C2)CC(OC2OC(CO)C(O)C(OC(CC3CCCCC3)C(=O)N3CCC3)C2NC(C)=O)C1OC1OC(C)C(O)C(O)C1O (centres unmarked) [Compound 23]
10 | 8.8 nM | CC[C@H]1C[C@@H](C(=O)NCCNC(=O)NCCNC(=O)[C@@H]2C[C@H](CC)[C@@H](O[C@@H]3O[C@@H](C)[C@@H](O)[C@@H](O)[C@@H]3O)[C@H](O[C@@H]3O[C@H](CO)[C@H](O)[C@H](O[C@@H](CC4CCCCC4)C(=O)O)[C@H]3NC(C)=O)C2)C[C@@H](OC2O[C@H](CO)[C@H](O)[C@H](O[C@@H](CC3CCCCC3)C(=O)O)[C@H]2NC(C)=O)[C@@H]1OC1O[C@@H](C)[C@@H](O)[C@@H](O)[C@@H]1O (some centres unmarked) [Compound 32]
11 | 2.1 nM | CC[C@H]1C[C@@H](C(=O)NCCNC(=O)NCCNC(=O)[C@@H]2C[C@H](CC)[C@@H](O[C@@H]3O[C@@H](C)[C@@H](O)[C@@H](O)[C@@H]3O)[C@H](O[C@@H]3O[C@H](CO)[C@H](O)[C@H](O[C@@H](CC4CCCCC4)C(=O)N4CCC4)[C@H]3NC(C)=O)C2)C[C@@H](OC2O[C@H](CO)[C@H](O)[C@H](O[C@@H](CC3CCCCC3)C(=O)N3CCC3)[C@H]2NC(C)=O)[C@@H]1OC1O[C@@H](C)[C@@H](O)[C@@H](O)[C@@H]1O (some centres unmarked) [Compound 45]
12 | 3.2 nM | CCC1CC(C(=O)NCCNC(=O)c2cn(CCOCCOCCn3cc(C(=O)NCCNC(=O)C4CC(CC)C(OC5OC(C)C(O)C(O)C5O)C(OC5OC(CO)C(O)C(OC(CC6CCCCC6)C(=O)O)C5NC(C)=O)C4)nn3)nn2)CC(OC2OC(CO)C(O)C(OC(CC3CCCCC3)C(=O)O)C2NC(C)=O)C1OC1OC(C)C(O)C(O)C1O (centres unmarked) [Compound 28]
13 | 8.6 nM | CC[C@H]1C[C@@H](C(=O)NCCNC(=O)c2cn(CCOCCOCCOCCn3cc(C(=O)NCCNC(=O)[C@@H]4C[C@H](CC)[C@@H](O[C@@H]5O[C@@H](C)[C@@H](O)[C@@H](O)[C@@H]5O)[C@H](O[C@@H]5O[C@H](CO)[C@H](O)[C@H](O[C@@H](CC6CCCCC6)C(=O)O)[C@H]5NC(C)=O)C4)nn3)nn2)C[C@@H](OC2O[C@H](CO)[C@H](O)[C@H](O[C@@H](CC3CCCCC3)C(=O)O)[C@H]2NC(C)=O)[C@@H]1OC1O[C@@H](C)[C@@H](O)[C@@H](O)[C@@H]1O (some centres unmarked) [Compound 27]
14 | 3.3 nM | CC[C@H]1C[C@@H](C(=O)NCCNC(=O)c2cn(CC(=O)NCCNC(=O)[C@@H]3C[C@H](CC)[C@@H](O[C@@H]4O[C@@H](C)[C@@H](O)[C@@H](O)[C@@H]4O)[C@H](O[C@@H]4O[C@H](CO)[C@H](O)[C@H](O[C@@H](CC5CCCCC5)C(=O)O)[C@H]4NC(C)=O)C3)nn2)C[C@@H](OC2O[C@H](CO)[C@H](O)[C@H](O[C@@H](CC3CCCCC3)C(=O)O)[C@H]2NC(C)=O)[C@@H]1OC1O[C@@H](C)[C@@H](O)[C@@H](O)[C@@H]1O (some centres unmarked) [Compound 31]
15 | 3.9 nM | CCC1CC(C(=O)NCCNC(=O)c2cn(CCOCCC(=O)NCCCCC(NC(=O)CCOCCn3cc(C(=O)NCCNC(=O)C4CC(CC)C(OC5OC(C)C(O)C(O)C5O)C(OC5OC(CO)C(O)C(OC(CC6CCCCC6)C(=O)O)C5NC(C)=O)C4)nn3)C(=O)OCc3ccccc3)nn2)CC(OC2OC(CO)C(O)C(OC(CC3CCCCC3)C(=O)O)C2NC(C)=O)C1OC1OC(C)C(O)C(O)C1O (centres unmarked) [Compound 37]
16 | 3 nM | CCC1CC(C(=O)NCCNC(=O)CCOCCOCCC(=O)NCCNC(=O)C2CC(CC)C(OC3OC(C)C(O)C(O)C3O)C(OC3OC(CO)C(O)C(OC(CC4CCCCC4)C(=O)N4CCC4)C3NC(C)=O)C2)CC(OC2OC(CO)C(O)C(OC(CC3CCCCC3)C(=O)N3CCC3)C2NC(C)=O)C1OC1OC(C)C(O)C(O)C1O (centres unmarked) [Compound 25]
17 | 0.8 nM | CCC1CC(C(=O)NCCNC(=O)CCOCCOCCOCCOCCOCCOCCOCCOCCOCCOCCC(=O)NCCNC(=O)C2CC(CC)C(OC3OC(C)C(O)C(O)C3O)C(OC3OC(CO)C(O)C(OC(CC4CCCCC4)C(=O)N4CCC4)C3NC(C)=O)C2)CC(OC2OC(CO)C(O)C(OC(CC3CCCCC3)C(=O)N3CCC3)C2NC(C)=O)C1OC1OC(C)C(O)C(O)C1O (centres unmarked) [Compound 20]
